Source: ChEMBL document CHEMBL1201862, “PubChem BioAssay data set” (2004)
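48-hour exposure; five concentrations; linearly interpolated endpoints. The concentration for 50% growth inhibition is given as GI50.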 Active and inactive are the calls of the source. No stated cut-off is given here; in the data, active = GI50 up to about 1.1 µM and inactive = higher.

Legend:
Experiment in all cases: NCI-60 cell line screen, 48 h
SF-268 = system: SF-268
LOX IMVI = system: LOX IMVI
UACC-257 = system: UACC-257
SF-295 = system: SF-295
SF-539 = system: SF-539
HOP-92 = system: HOP-92
DLD-1 = system: DLD-1
Malme-3M = system: Malme-3M
HT-29 = system: HT-29
NCI-H23 = system: NCI-H23
EKVX = system: EKVX
SN12C = system: SN12C
SNB-19 = system: SNB-19
M14 = system: M14
SNB-75 = system: SNB-75
HL-60 = system: HL-60
MDA-N = system: MDA-N
BT-549 = system: BT-549
MDA-MB-435 = system: MDA-MB-435
MDA-MB-231 = system: MDA-MB-231

SMILES	GI50 (SF-268)	GI50 (LOX IMVI)	GI50 (UACC-257)	GI50 (SF-295)	GI50 (SF-539)	GI50 (HOP-92)	GI50 (DLD-1)	GI50 (Malme-3M)	GI50 (HT-29)	GI50 (NCI-H23)	GI50 (EKVX)	GI50 (SN12C)	GI50 (SNB-19)	GI50 (M14)	GI50 (SNB-75)	GI50 (HL-60)	GI50 (MDA-N)	GI50 (BT-549)	GI50 (MDA-MB-435)	GI50 (MDA-MB-231)
Oc1ccc2c(O)cc(-c3ccccc3)nc2c1	32.4 µM (inactive)	17.5 µM (inactive)	21.7 µM (inactive)	75 µM (inactive)	37.2 µM (inactive)	29.3 µM (inactive)	18.3 µM (inactive)	34.4 µM (inactive)	23.3 µM (inactive)	36.4 µM (inactive)	35.9 µM (inactive)	24.3 µM (inactive)	32.4 µM (inactive)	19.7 µM (inactive)	22.1 µM (inactive)	21.5 µM (inactive)	–	–	–	–
CC(C)(C)C(C#N)(C#N)c1ccc(C(C#N)(C#N)C(C)(C)C)nn1	86.7 µM (inactive)	> 100 µM (inactive)	> 100 µM (inactive)	> 100 µM (inactive)	> 100 µM (inactive)	72.4 µM (inactive)	> 100 µM (inactive)	> 100 µM (inactive)	> 100 µM (inactive)	> 100 µM (inactive)	> 100 µM (inactive)	> 100 µM (inactive)	63.4 µM (inactive)	> 100 µM (inactive)	23.6 µM (inactive)	> 100 µM (inactive)	–	–	–	–
CC1(C)OCN(c2ccc(S(N)(=O)=O)cc2)Cn2c1nc1ccccc12	> 100 µM (inactive)	> 100 µM (inactive)	> 100 µM (inactive)	> 100 µM (inactive)	> 100 µM (inactive)	> 100 µM (inactive)	> 100 µM (inactive)	> 100 µM (inactive)	> 100 µM (inactive)	> 100 µM (inactive)	> 100 µM (inactive)	> 100 µM (inactive)	> 100 µM (inactive)	> 100 µM (inactive)	> 100 µM (inactive)	> 100 µM (inactive)	–	–	–	–
C=CC/C=C/Cc1csc(C(C)(C)C(O)C/C=C/C(=C)CCNC(=O)OC)n1 (stereo unspecified)	80.4 µM (inactive)	44.6 µM (inactive)	1.49 µM (inactive)	1.28 µM (inactive)	> 100 µM (inactive)	20.6 µM (inactive)	83.4 µM (inactive)	> 91.8 µM (inactive)	48.8 µM (inactive)	0.245 µM (active)	27.9 µM (inactive)	> 100 µM (inactive)	> 100 µM (inactive)	43.5 µM (inactive)	43 µM (inactive)	9.71 µM (inactive)	45.8 µM (inactive)	3.33 µM (inactive)	49.7 µM (inactive)	–
Cc1ccc(/C=C/C(=O)c2sc(C(N)=S)nc2C)cc1	> 100 µM (inactive)	> 100 µM (inactive)	> 100 µM (inactive)	> 100 µM (inactive)	> 100 µM (inactive)	> 100 µM (inactive)	> 100 µM (inactive)	> 100 µM (inactive)	> 100 µM (inactive)	> 100 µM (inactive)	> 100 µM (inactive)	> 100 µM (inactive)	–	–	> 100 µM (inactive)	> 100 µM (inactive)	–	–	–	–
Cc1cc2c(c3oc(C4(C)OC4C4OC4C)cc(=O)c13)C(=O)c1c(O)c(C3CC(C)(N(C)C)C(O)C(C)O3)cc(C3CC(N(C)C)C(O)C(C)O3)c1C2=O (stereo unspecified)	2.5e-05 µM (active)	–	0.000116 µM (active)	4.68e-05 µM (active)	0.000531 µM (active)	0.000733 µM (active)	0.0025 µM (active)	–	0.000175 µM (active)	0.0025 µM (active)	–	0.000136 µM (active)	0.0025 µM (active)	8.26e-05 µM (active)	–	0.0025 µM (active)	–	0.00011 µM (active)	9.23e-05 µM (active)	0.000227 µM (active)
Cc1cccc(C)c1NC(=O)/C(Cl)=C(/Cl)C(=O)O	17.2 µM (inactive)	18.1 µM (inactive)	16.1 µM (inactive)	29.2 µM (inactive)	23.1 µM (inactive)	15.5 µM (inactive)	7.28 µM (inactive)	14.7 µM (inactive)	17.5 µM (inactive)	19.1 µM (inactive)	19.5 µM (inactive)	18.7 µM (inactive)	24.5 µM (inactive)	9.29 µM (inactive)	20.2 µM (inactive)	2.63 µM (inactive)	19.2 µM (inactive)	17.6 µM (inactive)	21.9 µM (inactive)	21.3 µM (inactive)
Nn1c(CCCl)nc2c(Br)cc(Br)cc2c1=O	37.1 µM (inactive)	25.5 µM (inactive)	34.9 µM (inactive)	31.7 µM (inactive)	40.7 µM (inactive)	33 µM (inactive)	26.8 µM (inactive)	> 69.5 µM (inactive)	32.7 µM (inactive)	24 µM (inactive)	29.8 µM (inactive)	30.8 µM (inactive)	51.9 µM (inactive)	30.3 µM (inactive)	27.8 µM (inactive)	2.77 µM (inactive)	–	–	–	–
Cc1cccc(C(C)(C)C)c1NC(=O)C(C#N)C1=C(Cl)C(=O)c2ccccc2C1=O (stereo unspecified)	17.1 µM (inactive)	16.3 µM (inactive)	15.6 µM (inactive)	15.9 µM (inactive)	18.1 µM (inactive)	3.93 µM (inactive)	14.4 µM (inactive)	17.2 µM (inactive)	20.8 µM (inactive)	15.8 µM (inactive)	12.5 µM (inactive)	17.3 µM (inactive)	18.3 µM (inactive)	18 µM (inactive)	13.7 µM (inactive)	2.03 µM (inactive)	14.4 µM (inactive)	14.3 µM (inactive)	16.7 µM (inactive)	14 µM (inactive)
COC(=O)C1C(/C=C/c2ccoc2)ON2CCC[C@@H]12 (stereo partly specified)	> 100 µM (inactive)	> 100 µM (inactive)	> 100 µM (inactive)	> 100 µM (inactive)	> 100 µM (inactive)	> 100 µM (inactive)	> 100 µM (inactive)	33.6 µM (inactive)	> 100 µM (inactive)	> 100 µM (inactive)	> 100 µM (inactive)	> 100 µM (inactive)	> 100 µM (inactive)	> 100 µM (inactive)	87.5 µM (inactive)	> 100 µM (inactive)	–	–	–	–
Cc1ccc(S(=O)OC2C3CC4CC(C3)CC2C4)cc1 (stereo unspecified)	> 100 µM (inactive)	> 100 µM (inactive)	> 100 µM (inactive)	> 100 µM (inactive)	> 100 µM (inactive)	> 100 µM (inactive)	> 100 µM (inactive)	> 100 µM (inactive)	> 100 µM (inactive)	> 100 µM (inactive)	> 100 µM (inactive)	> 100 µM (inactive)	> 100 µM (inactive)	> 100 µM (inactive)	> 100 µM (inactive)	> 100 µM (inactive)	–	–	–	–
CN/N=C(\C(=O)Nc1ccc([N+](=O)[O-])cc1[N+](=O)[O-])C1NC(=O)NC1=O (stereo unspecified)	> 100 µM (inactive)	38.1 µM (inactive)	> 100 µM (inactive)	> 100 µM (inactive)	> 100 µM (inactive)	> 100 µM (inactive)	> 100 µM (inactive)	> 100 µM (inactive)	80.5 µM (inactive)	> 100 µM (inactive)	> 100 µM (inactive)	> 100 µM (inactive)	> 100 µM (inactive)	> 100 µM (inactive)	> 100 µM (inactive)	> 100 µM (inactive)	–	–	–	–
C=C1C(=O)OC2CC3(C)C=CC(=O)C(=C)C3CC12 (stereo unspecified)	2.59 µM (inactive)	0.516 µM (active)	1.64 µM (inactive)	13.9 µM (inactive)	1.53 µM (inactive)	1.91 µM (inactive)	0.329 µM (active)	1.99 µM (inactive)	1.65 µM (inactive)	1.69 µM (inactive)	2.77 µM (inactive)	1.69 µM (inactive)	8.55 µM (inactive)	1.46 µM (inactive)	3.73 µM (inactive)	0.769 µM (active)	–	–	–	–
COc1cccc(/C(C=O)=C(\Cl)c2ccc(OC)c(OC)c2)c1	11.7 µM (inactive)	15 µM (inactive)	14.4 µM (inactive)	15.2 µM (inactive)	16.6 µM (inactive)	20.6 µM (inactive)	12.9 µM (inactive)	15.6 µM (inactive)	14.4 µM (inactive)	12.2 µM (inactive)	17.9 µM (inactive)	14.7 µM (inactive)	3.94 µM (inactive)	17.6 µM (inactive)	5.04 µM (inactive)	3.97 µM (inactive)	–	–	–	–
CC1OC(OC2C[C@](O)(C(=O)CF)Cc3c(O)c4c(c(O)c32)C(=O)c2ccccc2C4=O)CC(N)C1O (stereo partly specified)	0.0255 µM (active)	< 0.01 µM (active)	0.0794 µM (active)	< 0.01 µM (active)	0.0561 µM (active)	0.0483 µM (active)	0.0484 µM (active)	< 0.0109 µM (active)	< 0.0156 µM (active)	< 0.01 µM (active)	0.507 µM (active)	< 0.01 µM (active)	< 0.014 µM (active)	0.0263 µM (active)	0.0161 µM (active)	< 0.01 µM (active)	0.108 µM (active)	0.131 µM (active)	0.0746 µM (active)	0.043 µM (active)
O=C(O)Cc1cccc2c(=O)cc(-c3ccccc3)oc12 [MITOFLAXONE]	> 250 µM (inactive)	243 µM (inactive)	> 250 µM (inactive)	242 µM (inactive)	> 250 µM (inactive)	–	> 250 µM (inactive)	> 250 µM (inactive)	> 250 µM (inactive)	> 250 µM (inactive)	242 µM (inactive)	238 µM (inactive)	> 250 µM (inactive)	> 250 µM (inactive)	212 µM (inactive)	> 250 µM (inactive)	385 µM (inactive)	204 µM (inactive)	> 250 µM (inactive)	> 250 µM (inactive)
